# From patent US7897637B2, “Methods of using flavonoids to enhance memory” (The Salk Institute for Biological Studies, priority 2006, dated 2011)
# Legend:
# ERK [1] = experiment: ERK activation in PC12 cells (immunoblotting, anti-phospho ERK); assay type: cell-based; details: 50 μM PD98059, 30 minutes pretreatment, flavonoids 4 hours
# Method: PC12 cells were treated with the optimal concentrations for differentiation of the different derivatives for 10 minutes to 6 hours; then the cells were scraped into sample buffer and analyzed by SDS-PAGE and immunoblotting with an antibody specific for phosphorylated ERKs (anti-phospho ERK) and an antibody that detects phosphorylated and unphosphorylated ERKs (anti-ERK),
# ERK activation by the different flavonoids was blocked by pretreatment with PD98059, an inhibitor of MEK, the kinase which phosphorylates ERK. PC12 cells in N2 medium were untreated (control) or treated with 10 μM fisetin, 25 μM 3,3′-DHF, 25 μM 3,4′-DHF, 25 μM 3′,4′-DHF, 5 μM 3,3′,4′-THF, 25 μM 3,7,3′-THF, 25 μM 3,7,4′-THF or 10 μM 7,3′,4′-THF for 4 hours in the absence or presence of 50 μM PD98059 (30 minutes pretreatment). The cells then were scraped into sample buffer and analyzed by SDS-PAGE and immunoblotting with an antibody specific for phosphorylated ERKs (anti-phospho ERK) and an antibody that detects phosphorylated and unphosphorylated ERKs (anti-ERK). […]
# PC12 cells in N2 medium were treated with the flavonoids as described in the text and, after the indicated time periods, the cells were solubilized in SDS sample buffer containing 0.1 mM Na3VO4 and 1 mM phenylmethylsulfonyl fluoride (PMSF), boiled for 5 minutes and either analyzed immediately or stored frozen at −70° C. […]
# ERK1 (p44) = ERK1 (p44) phosphorylation in hippocampal slices (immunoblotting, densitometry); assay type: cell-based, rat; details: inhibitor alone (50 μM PD98059 or 10 μM U0126, 30 minutes)
# Method: (§1) Western blots panels A and B) of hippocampal slices treated with (A) 1 μM fisetin or (B) pretreated for 30 minutes with either 50 μM PD98059 (PD) or 10 μM U0126 (U) before the addition of 1 μM fisetin for 5 minutes, which blots were probed with the indicated antibodies.
# (§2) Hippocampal slices in artificial cerebral spinal fluid (ACSF) were treated with either 1 μM fisetin for 5-20 minutes or pretreated for 30 minutes with either 50 μM PD98059 (PD) or 10 μM U0126 (J) before the addition of 1 μM fisetin for 5 minutes. Equal amounts of protein were analyzed by SDS-PAGE and immunoblotting with antibodies to phospho-ERK and phospho-CRFB along with antibodies to the unphosphorylated forms of the proteins. The average phosphoprotein signal from the blots was quantified by densitometry and normalized to total protein was plotted±S.D.
# [2] = system: CA1 area of rat hippocampal slices; experiment: Long-term potentiation in CA1 area of hippocampal slices; assay type: cell-based
# ERK [3] = experiment: ERK activation in primary cortical neuron cultures (immunoblotting); assay type: cell-based, rat; details: 50 μM PD98059 pretreatment, 10 μM fisetin 4 hours
# Method: (§3) The average phosphoprotein signal from the blots was quantified by densitometry and normalized to total protein,
# (§4) Five (5) day old cortical cultures were next pretreated with 50 μM of the MEK inhibitor, PD98059, before the addition of 10 μM fisetin for 4 hours.
# (§5) Primary cultures of rat cortical neurons were prepared as previously described by Li et al. (Neuron, 19:453-63, 1997, herein incorporated by reference as to the method). Analysis of ERK and CREB phosphorylation was performed using SDS-polyacrylamide gel electrophoresis and immunoblotting as previously described by Sagara et al. (J. Neurochem., 90:1144-1155, 2004) using equal amounts of protein from 5 day old cortical cultures. Blots were scanned and quantified using NIH Image. Results were analyzed using an unpaired Student's t-test.
# CREB [4] = experiment: CREB activation in primary cortical neuron cultures (immunoblotting); assay type: cell-based, rat; details: 50 μM PD98059 pretreatment, 10 μM fisetin 4 hours
# Method: as §3, §4, §5
# CREB [5] = experiment: CREB phosphorylation in hippocampal slices (immunoblotting, densitometry); assay type: cell-based, rat; details: inhibitor alone (50 μM PD98059 or 10 μM U0126, 30 minutes)
# Method: as §1, §2
# ERK2 (p42) = ERK2 (p42) phosphorylation in hippocampal slices (immunoblotting, densitometry); assay type: cell-based, rat; details: inhibitor alone (50 μM PD98059 or 10 μM U0126, 30 minutes)
# Method: as §1, §2
# HT22 cells = experiment: Protection of HT22 cells from oxidative glutamate toxicity (MTT assay); assay type: cell-based, mouse; details: 5 mM glutamate ± 50 μM PD98059, 24 hours
# From the text: Fisetin is effective at protecting nerve cells from oxidative stress-induced death (Ishige et al., Free Radic. Biol. Med., 30:433-446, 2001). This Example illustrates the structure-activity relationship between fisetin derivatives and neuroprotection in a model of oxidative glutamate toxicity using mouse HT22 cells. This pathway of programmed cell death is initiated by the addition of glutamate to the extracellular medium. Glutamate inhibits the uptake of cystine which is required for glutathione (GSH) biosynthesis, resulting in the depletion of GSH in neurons (for review see Tan et al., Curr. Top. Med. Chem., 1:497-506, 2001). Subsequently, this decrease in cellular GSH results in the production of reactive oxygen species (ROS) by mitochondria. The ROS accumulation then causes Ca^+2 influx from the extracellular medium which leads to cell death.
# HT22 cells were untreated (Ct) or treated with 10 μM fisetin, 25 μM 3,3′-DHF, 25 μM 3,4′-DHF, 2.5 μM 3′,4′-DHF, 2.5 μM 3,3′,4′-THF 25 μM 3,7,3′-THF, 25 μM 3,7,4′-THF or 10 μM 7,3′,4′-THF in the presence of 5 mM glutamate±50 μM PD98059. Twenty four (24) hours later cell survival was measured by the MTT assay.
# HT22 cells were untreated (Ct) or treated with 10 μM fisetin, 25 μM 3,3′-DHF. […] Protection by all of the other flavonoids was unaffected by BSO.
# Cell viability was determined by a modified version of the 3-(4,5-dimethylthiazol-2-yl)-2,5-diphenyl tetrazolium bromide (MTT) assay based on the standard procedure (Hansen et al., J. Immunol. Meth., 119:203-10, 1989). Briefly, cells were seeded onto 96-well microtiter plates at a density of 5×10^3 cells per well. The next day, the medium was replaced with DMEM supplemented with 7.5% DFCS and the cells were treated with the different flavonoids alone or in the presence of 5 mM glutamate. Twenty four hours later, the medium in each well was aspirated and replaced with fresh medium containing 2.5 μg/ml MTT. After 4 hours of incubation at 37° C., cells were solubilized with 100 μl of a solution containing 50% dimethylformamide and 20% SDS (pH 4.7). The absorbance at 570 nm was measured on the following day with a microplate reader (Molecular Devices). Results obtained from the MTT assay correlated directly with the extent of cell death as confirmed visually. Controls employing wells without cells were used to determine the effects of the agents upon the assay chemistry.
# CREB [6] = details: Vanhoutte et al. 1999; cited from earlier work
# ERK [7] = details: Vanhoutte et al. 1999; English & Sweatt 1997; cited from earlier work
Compound,effect on ERK activation by the different flavonoids (ERK [1]),p44 phosphoprotein signal normalized to total protein (ERK1 (p44)),effect on fisetin-induced facilitation of LTP ([2]; PD98059 added 10 minutes prior to fisetin),effect on basal synaptic transmission ([2]; no tetanus),effect on activation of ERK by fisetin (ERK [3]),effect on activation of CREB by fisetin (CREB [4]),CREB phosphoprotein signal normalized to total protein (CREB [5]),p42 phosphoprotein signal normalized to total protein (ERK2 (p42)),effect on the ability of fisetin or its derivatives to prevent cell death (HT22 cells),increase in CREB phosphorylation reported following treatment of slices (CREB [6]) [fold],increase in ERK phosphorylation reported following treatment of slices (ERK [7])
"COc1cccc(-c2cc(=O)c3ccccc3o2)c1N [PD98059, reference compound]",blocked,0.75±0.5,blocked,no effect,blocked,blocked,0.64±0.11,0.83±0.08,no significant effect,–,–
N[C@@H](CCC(=O)O)C(=O)O [glutamate],–,–,–,–,–,–,–,–,–,~2.5,1.5-2 fold
